Columns and labels:
[1] = biological target: Delta-type opioid receptor (Homo sapiens, UniProt P41143); assay: Displacement of [3H]DADLE from delta opioid receptor
Mu-type opioid receptor = Mu-type opioid receptor (Homo sapiens, UniProt P35372); assay: Displacement of [3H]DAMGO from mu opioid receptor
[2] = biological target: T1, Kappa-type opioid receptor (Homo sapiens, UniProt P41145); assay: Displacement of [3H]U69593 from kappa opioid receptor
[3] = Selectivity ratio of Ki for mu opioid receptor to Ki for kappa opioid receptor
[4] = Selectivity ratio of Ki for delta opioid receptor to Ki for kappa opioid receptor
[5] = biological target: T1, Kappa-type opioid receptor; assay: Agonist activity at kappa opioid receptor assessed as stimulation of [35S]GTPgammaS binding relative to U50488; assay type: functional

Delta-type opioid receptor, sequence (P41143 whole entry): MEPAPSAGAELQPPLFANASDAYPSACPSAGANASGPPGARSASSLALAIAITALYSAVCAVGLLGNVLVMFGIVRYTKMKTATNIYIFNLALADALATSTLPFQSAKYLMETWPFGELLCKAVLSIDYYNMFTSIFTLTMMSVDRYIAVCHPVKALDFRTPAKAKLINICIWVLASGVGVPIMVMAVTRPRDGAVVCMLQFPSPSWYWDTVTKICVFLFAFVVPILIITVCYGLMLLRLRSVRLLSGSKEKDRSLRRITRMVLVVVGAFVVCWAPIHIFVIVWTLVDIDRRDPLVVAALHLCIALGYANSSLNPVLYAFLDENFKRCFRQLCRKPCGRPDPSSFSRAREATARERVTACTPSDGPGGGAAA
T1 sequence (P41145 whole entry): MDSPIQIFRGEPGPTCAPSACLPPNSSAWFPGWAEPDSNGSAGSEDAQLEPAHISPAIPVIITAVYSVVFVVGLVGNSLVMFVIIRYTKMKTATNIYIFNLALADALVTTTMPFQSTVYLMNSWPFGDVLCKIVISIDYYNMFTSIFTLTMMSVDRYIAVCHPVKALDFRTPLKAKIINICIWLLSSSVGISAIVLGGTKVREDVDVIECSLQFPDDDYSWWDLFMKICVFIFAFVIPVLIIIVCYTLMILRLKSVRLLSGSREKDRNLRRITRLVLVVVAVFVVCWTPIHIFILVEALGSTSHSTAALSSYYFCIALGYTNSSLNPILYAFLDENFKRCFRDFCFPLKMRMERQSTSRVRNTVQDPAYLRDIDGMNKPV
Mu-type opioid receptor, sequence (P35372 whole entry): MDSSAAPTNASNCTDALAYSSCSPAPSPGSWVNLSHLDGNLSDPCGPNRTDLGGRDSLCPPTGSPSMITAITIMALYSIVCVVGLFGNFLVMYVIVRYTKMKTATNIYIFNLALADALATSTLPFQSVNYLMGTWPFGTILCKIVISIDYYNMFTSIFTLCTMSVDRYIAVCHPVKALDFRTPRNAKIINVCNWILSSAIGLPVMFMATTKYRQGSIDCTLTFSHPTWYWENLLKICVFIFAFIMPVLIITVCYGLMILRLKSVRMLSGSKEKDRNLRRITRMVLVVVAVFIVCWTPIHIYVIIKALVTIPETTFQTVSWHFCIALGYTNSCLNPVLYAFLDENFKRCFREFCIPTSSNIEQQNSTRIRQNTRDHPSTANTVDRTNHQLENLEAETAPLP

SMILES | Ki [1] | Ki (Mu-type opioid receptor) | Ki [2] | Ratio Ki [3] | Ratio Ki [4] | Emax [5]
COC(=O)[C@@H]1C[C@H](OC(C)=O)C(=O)[C@H]2[C@@]1(C)CC[C@H]1C(=O)O[C@H](c3ccc4ccccc4c3)C[C@]21C | > 5000 nM | > 3000 nM | > 8000 nM | > 0.4 | > 0.6 | –
CCOC(=O)C1=C(C(=O)OCC)C2OC1C=C2[C@@H]1C[C@]2(C)[C@H]3C(=O)[C@@H](OC(C)=O)C[C@@H](C(=O)OC)[C@]3(C)CC[C@H]2C(=O)O1 (some centres not stated) | 2260 nM | > 3200 nM | 120 nM | > 25 | 19 | 90%
COC(=O)[C@@H]1C[C@H](OC(C)=O)C(=O)[C@H]2[C@@]1(C)CC[C@H]1C(=O)O[C@H](C3=CC4OC3c3ccccc34)C[C@]21C (some centres not stated) | > 10000 nM | > 2500 nM | 790 nM | > 3 | > 13 | –
COC(=O)c1ccc([C@@H]2C[C@]3(C)[C@H]4C(=O)[C@@H](OC(C)=O)C[C@@H](C(=O)OC)[C@]4(C)CC[C@H]3C(=O)O2)cc1C(=O)OC | > 5000 nM | > 3000 nM | 286 nM | > 8 | > 17 | –
COC(=O)[C@@H]1C[C@H](OC(C)=O)C(=O)[C@H]2[C@@]1(C)CC[C@H]1C(=O)O[C@H](C3=CC4OC3C3C5OC(c6c5c5ccccc5c(=O)c5ccccc65)C43)C[C@]21C (mixture of isomers) | > 5200 nM | > 2700 nM | > 13000 nM | > 0.2 | > 17 | –
CCOC(=O)c1ccc([C@@H]2C[C@]3(C)[C@H]4C(=O)[C@@H](OC(C)=O)C[C@@H](C(=O)OC)[C@]4(C)CC[C@H]3C(=O)O2)cc1C(=O)OCC | > 5000 nM | > 3000 nM | 228 nM | > 13 | > 22 | –
COC(=O)C1=C(C(=O)OC)C2OC1C=C2[C@@H]1C[C@]2(C)[C@H]3C(=O)[C@@H](OC(C)=O)C[C@@H](C(=O)OC)[C@]3(C)CC[C@H]2C(=O)O1 (some centres not stated) | > 5000 nM | > 4800 nM | 60 nM | > 80 | > 83 | 100%
COC(=O)[C@@H]1C[C@H](OC(C)=O)C(=O)[C@H]2[C@@]1(C)CC[C@H]1C(=O)O[C@H](C3=CC4OC3C3C4C4OC3(C)c3c4c4ccccc4c(=O)c4ccccc34)C[C@]21C (some centres not stated) | > 5000 nM | > 1700 nM | 290 nM | > 6 | > 17 | –

Source: ChEMBL document CHEMBL1773062, “Opioid receptor probes derived from cycloaddition of the hallucinogen natural product salvinorin A” (J Nat Prod, 2011)
